From patent publication US11236303B2, “CD34+CD41DIM megakaryocytes progenitors and uses thereof for producing proplatelet-bearing MKs and/or platelets” (INSTITUT NATIONAL DE LA SANTE ET DE LA RECHERCHE MEDICALE …, priority 2015, dated 2022)
Several values for one entry are separate records, joined by “and”; a condition that tells them apart may be missing. Identical values can stand only once. One block for each compound: values may come before it.

Assays:
Assay type in all cases: cell-based, human
[1] = system: peripheral blood CD34+ cells; assay: CD34/CD41 expression by flow cytometry in MK differentiation culture
Method: (§1) CD34^+ cells were seeded in 48-well plates at a density of 4×10^4 per mL in StemSpan SFEM medium supplemented with 20 ng/mL human LDL and CC220 (1×), a cocktail of cytokines containing SCF, TPO, IL-6 and IL-9 (all from Stemcell Technologies), with or without addition of 1 μM SR1 (Cellagen Technology, San Diego, Calif.) (FIG. 1A). On day 7, the cells were harvested, washed and seeded at 5×10^4/mL in StemSpan SFEM medium containing 30 ng/mL TPO with or without 1 μM SR1 for an additional 7 days. The cultures were incubated at 37° C. under normoxic conditions and 5% CO2. On days 7 and 10 of culture, the cells were counted, their viability was measured by propidium iodide exclusion in an automatic cell counter (ADAM, Digital-Bio, Korea) and the expression of CD34, CD41 and CD42b was analyzed in a Gallios flow cytometer using Kaluza software (Beckman Coulter, Villepinte, France). In some experiments, SR1 was replaced by the AhR agonist FICZ (Enzo life sciences, Villeurbane, France) added at 0.2 μM.
(§2) In a second protocol, CD34^+ cells were cultured in the presence of mesenchymal stromal cells (MSCs) isolated from human bone marrow (Guilloton F et al., Blood. 2012; 119:2556-2567). MSCs were maintained in α-MEM medium supplemented with 10% fetal bovine serum (Invitrogen, Cergy Pontoise, France) and 2 ng/mL recombinant human (rh) FGF2 (Peprotech, Rocky Hill, N.J.). CD34^+ cells were added to a confluent layer of MSCs at a density of 4×10^4/mL in 48-well plates in StemSpan SFEM medium supplemented with 20 ng/mL human LDL and CC220. On day 7, the cells in suspension were harvested, washed and co-cultured at 5×10^4/mL on a new layer of confluent MSCs in StemSpan SFEM medium containing 30 ng/mL TPO for an additional 7 days (FIG. 5A).
Surface Markers. Cells were analyzed by flow cytometry (Gallios, Beckman Coulter, France) after labeling with anti-CD34-PE-Cy7 (Beckman Coulter, Fullerton, Calif.), anti-CD41-Alexa-488 (ALMA.17), anti-CD42c-PE (RAM.1) and anti-CD42d-Alexa-647 (V.1) mAbs for 30 min at 4° C. The cells were then washed and resuspended in PBS containing 7-AAD (1/50). The acquired data were analyzed with Kaluza software.

[2] = system: peripheral blood CD34+ cells; assay: Quantification of proplatelet-bearing MKs in two-step culture of CD34+ cells
Method: as §1
(§3) The percentage of MKs extending proplatelets was determined in the culture wells by phase-contrast microscopy. In each culture, at least 100 MKs were analyzed and images were acquired using a Zeiss Axio Vert.A1 microscope with a 20× objective (Marly-le-Roi, France).

[3] = system: peripheral blood CD34+ cells; assay: Determination of the number of platelets produced per seeded cell, two-step culture of CD34+ cells
Method: as §1
as §2, with “On day 7, the cells in suspension were harvested, washed and co-cultured at 5×10^4/mL on a new layer of confluent MSCs in StemSpan SFEM medium containing 30 ng/mL TPO for an additional 7 days (FIG. 5A).” left out
CD34^+ cells cultured for 7 days in the presence of CC220 (FIGS. 1A and 5A) or CD34/CD41 sorted cells (FIGS. 4A and 6A) were seeded in a medium containing TPO. […] CD41/CD42c double positive events, having the same scattering properties as washed blood platelets, were counted as platelet-like particles and the number of particles per seeded cell, at day 7 or 10 following experiments, was determined.

CYP1B1 = CYP1B1 mRNA expression by qPCR (downstream target of AhR)
Method: CD41/61 cells were obtained on day 7 or 10 of culture using the antibody ALMA.17 and magnetic beads (EasySep® “Do-It-Yourself” Selection Kit, StemCell Technologies). Total RNA were extracted using an RNeasy® Mini kit (QIAGEN) following manufacturer's instructions. Quantity and quality of total RNA for all samples were evaluated by measuring OD at 260 nm and concentration was adjusted at 50 ng/ml. The RNA samples were stored at −80° C. until use. qRT-PCR was applied under standard conditions using the SYBR Green Master Mix kit on the ABI Prism 7900 Sequence Detection System (PerkinElmer-Cetus, Courtaboeuf, France). The primers for genes were chosen with the assistance of the Oligo 6.0 program (National Biosciences, Plymouth, Minn.) and have been previously described (Bieche I. et al., Pharmacogenetics and genomics. 2007; 17:731-742).

[4] = system: peripheral blood CD34+ cells; assay: Two-step MK differentiation culture: level of proliferation (viable cell count)
Method: as §1

CD34+CD41dim cells [5] = assay: Quantification of proplatelet-bearing MKs from sorted CD34+CD41dim cells
Method: (§4) The cells recovered on day 10 were incubated with a mixture of Alexa-488-conjugated anti-CD41 (ALMA.17) and PE-Cy7-conjugated anti-CD34 mAbs (BD Biosciences) for 30 min at 4° C. They were then washed in PBS-EDTA and incubated for 30 min in PBS containing 7-AAD (1/50) to select viable cells. The morphologic and sorting gates were determined by FMO (fluorescence minus one) analysis and megakaryocytic precursors were sorted at 500 cells/s according to their CD34/CD41 expression using a FACS Aria II flow cytometer (Becton Dickinson, Mountain View, Calif.) equipped with a 50 μm nozzle and two argon lasers operating at 500 mW and tuned to 488 and 360 nm, respectively (Coherent Radiation, Palo Alto, Calif.). The sorted CD34^+CD41^dim and CD34 CD41^+ cells were then counted and seeded at 4×10^4/mL in 48-well plates in StemSpan medium containing TPO with or without SR1 for 7 days (FIG. 4A).
as §3

CD34+CD41dim cells [6] = assay: Number of platelet-like elements produced per seeded sorted CD34+CD41dim cell
Method: as §4, with “4A). CD34^+ cells cultured for 7 days in the presence of CC220 (FIGS. 1A and 5A) or CD34/CD41 sorted cells (FIGS. 4A and 6A) were seeded in a medium containing TPO. […] CD41/CD42c double positive events, having the same scattering properties as washed blood platelets, were counted as platelet-like particles and the number of particles per seeded cell, at day 7 or 10 following experiments, was determined.” for “4A).”

[7] = SR1-derived CD34+CD41dim cells sorted day 10, 7 days in TPO + SR1 (5 μM)

- effect on the MSC-induced decrease in CYP1B1 transcripts (CYP1B1; MSC co-culture with addition of FICZ, day 10): reversed
Structure (SMILES): O=Cc1c2[nH]c3ccccc3c2cc2[nH]c3ccccc3c12 [FICZ]
- proportion of CD34+CD41dim cells ([1]; MSC co-culture with addition of FICZ, data not shown): reduced
- proplatelet extension of MKs ([2]; SR1 replaced by FICZ (0.2 μM)): dramatic decrease
- number of platelet-like elements per cell seeded on day 7 ([3]; day 14, SR1 replaced by 0.2 μM FICZ): 0.20±0.04 platelets/seeded cell

- CYP1B1 expression (CYP1B1; day 7 culture, SR1 treated cells, control 579.8±40.8, n=3): 2.5±0.8 arbitrary units
Structure (SMILES): CC(C)n1cnc2c(NCCc3ccc(O)cc3)nc(-c3csc4ccccc34)nc21 [SR1, 4-(2-(2-(benzo[b]thiophen-3-yl)-9-isopropyl-9H-purin-6-ylamino)ethyl)phenol]
- fold expansion of the total nucleated cells ([4]; day 7, over input of CD34+ cells on day 0, with SR1, mean±SEM, n=8): 4.2±1.2 fold
- increase in number of cells from day 7 to day 10 ([4]; day 7 to day 10, SR1-treated cultures): 2.5 times
- decrease in CD34 positivity ([1]; day 7, expansion step with CC220, SR1-treated): 8.3%
- CD34+CD41+ cells, % of total population ([1]; day 7, presence of SR1): 68.9±1.8% and 69%
- CD34+CD41- cells, % of total population ([1]; day 7, presence of SR1): 22.4±1.5%
- CD34-CD41+ cells, % of total population ([1]; day 7, presence of SR1): 3.6±0.3%
- CD34+CD41+ cells, % of the cells ([1]; day 10, SR1-treated cultures): 55.1±4.9% and 55%
- CD34+CD41dim cells (region R2), % of total cells ([1]; day 10, SR1 treatment, mean±SEM in 8 experiments): 36.8±1.9%
- proportion of CD34+ cells ([1]; day 10, after passage in TPO alone, SR1 treatment): 71.6%
- CD34-CD41+ cells, % of the cells ([1]; day 10, presence of SR1): 26.7±4.5%
- percentage of MKs extending proplatelets ([2]; day 14, 1 μM SR1, CC220 day 0-7 then TPO day 7-14): 34.6±2.1%
- number of platelet-like elements per cell seeded on day 7 ([3]; day 14, 1 μM SR1): 20.72±5.19 platelets/seeded cell
- increase in number of platelet particles after addition of SR1 versus control ([3]; day 14, per cell seeded on day 7): about 3 fold
- percentage of MKs extending proplatelets (CD34+CD41dim cells [5]; MSC-derived CD34+CD41dim cells sorted day 10, 7 days in TPO + 5 μM SR1, n=4): 49.5±10.5%
- percentage of MKs extending proplatelets (CD34+CD41dim cells [5]; [7]): 91.0±2.4%
- proportion of the MKs produced that are proplatelet-bearing MKs (CD34+CD41dim cells [5]; from seeded CD34+CD41dim cells, summary statement): About 90%
- number of platelet-like elements per seeded cell (CD34+CD41dim cells [6]; [7]): 52.1±8.8 platelets/seeded cell and 52.06±8.79 platelets/seeded cell
- enhanced production of platelet-like elements with SR1 as compared to without SR1 (CD34+CD41dim cells [6]; sorted CD34+CD41dim cells, 7 days in TPO): 6.8 fold
